Assay results published in US10195156B2, “Compounds and compositions for intracellular delivery of agents” (ModernaTX, Inc., priority 2015, dated 2019).

Tests used:
[1] = Particle size and polydispersity index of nanoparticle compositions (Zetasizer Nano ZS); assay type: physicochemical
Summary of the method: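 Zetasizer Nano ZS; samples in 1×PBS; read-out: particle size plus polydispersity index.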

[2] = Encapsulation efficiency of RNA (QUANT-IT RIBOGREEN RNA assay); assay type: physicochemical
Summary of the method: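 RiboGreen fluorescence (ex ~480, em ~520 nm) measured after 15 min at 37 °C on samples at ~5 μg/mL in TE, pH 7.5, ± 2% Triton X-100 solution. After blank subtraction, free RNA is given as intact-sample signal divided by disrupted-sample signal.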

[3] = system: luciferase (Luc) mRNA expression; experiment: Expression of Luc induced by sample formulations, whole-body bioluminescence after intravenous administration; assay type: in vivo; conditions: mice, i.v., 0.5 mg/kg
Summary of the method: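 Read-out is whole-body bioluminescence at 3, 6 and 24 h after a single intravenous dose of 0.5 mg/kg Luc mRNA in nanoparticle formulations. Groups of n=6 mice; PBS and standard MC3 formulation as references.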

[4] = pKa of nanoparticle compositions; assay type: physicochemical
IL-6 = experiment: Cytokine production induced by sample formulations: IL-6; assay type: in vivo; conditions: mice, i.v., 0.5 mpk, 6 hours; for IL-6: in pg/mL (unit assumed)
Summary of the method: (§1)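 Cytokine levels were quantified at 6 hours in mice given the nanoparticle compositions i.v. at 0.5 mpk. MC3 standard formulation and PBS served as comparators.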

IP-10 = experiment: Cytokine production induced by sample formulations: IP-10; assay type: in vivo; conditions: mice, i.v., 0.5 mpk, 6 hours; for IP-10: in pg/mL (unit assumed)
Summary of the method: as §1

[5] = system: modified luciferase expression; experiment: Expression of Luc in different organs (liver, lung, spleen, femur) 6 hours after intravenous administration; assay type: in vivo; conditions: i.v., 0.5 mpk
Description: The efficacy of the nanoparticle compositions presented in Tables 1, 1a, 17-1, 19-1, 20-1 and 21-1 was further evaluated by measuring the expression of modified luciferase in the liver, lung, spleen, and femur upon administration of a given composition. Formulations were administered intravenously to mice (n=3) at a dosage of 0.5 mpk and bioluminescence measured after 6 hours. The standard MC3 formulation and a PBS control were also tested.

[6] = Table 1, rows without footnote mark
[7] = Table 1, rows without footnote mark (lipid:DOPE:cholesterol:PEG-DMG 40:20:38.5:1.5, Luc mRNA; MC3 standard formulation)
[8] = Table 1, * lipid:DSPC:Chol:PEG-DMG 50:10:38.5:1.5
[9] = Table 20-1, rows without footnote mark

SMILES | PDI [1, 6] | Size (nm) [1, 7] [nm] | EE (%) [2, 6] [%] | Total Flux 3 hours ([3]; Table 2, 3 hours) | Total Flux 6 hours ([3]; Table 2) | Total Flux 24 hours ([3]; Table 2) | pKa [4, 6] | IL-6 (IL-6; Table 4) | IP-10 (IP-10; Table 4) | Total Flux Femur ([5]; Table 3, mice) | Total Flux Liver ([5]; Table 3, mice, liver) | Total Flux Lung ([5]; Table 3, mice) | Total Flux Spleen ([5]; Table 3, mice) | PDI [1, 9] | Size (nm) [1, 9] [nm] | EE (%) [2, 9] [%] | Total Flux 3 hours ([3]; Table 20-2, 3 hours) | Total Flux 6 hours ([3]; Table 20-2) | Total Flux 24 hours ([3]; Table 20-2) | pKa [4, 9] | further results
CCCCC/C=C\C/C=C\CCCCCCCCN(CCCCCCCC/C=C\C/C=C\CCCCC)CCOC [Compound 17-9, (9Z,12Z)—N-(2-Methoxyethyl)-N-((9Z,12Z)-octadeca-9,12-dien-1-yl)octadeca-9,12-dien-1-amine] | – | – | – | – | – | – | – | – | – | – | – | – | – | – | – | – | – | – | – | – | PDI ([1]; Table 17-1): 0.138; Size (nm) ([1]; Table 17-1): 87.1 nm; EE (%) ([2]; Table 17-1): 95.0%; Total Flux 3 hours ([3]; Table 17-2, 3 hours): 6.87E+06; Total Flux 6 hours ([3]; Table 17-2): 9.97E+06; Total Flux 24 hours ([3]; Table 17-2): 3.43E+05; pKa ([4]; Table 17-1): 4.93; IL-6 (IL-6; Table 17-4): 35.2; IP-10 (IP-10; Table 17-4): 112; Total Flux Femur ([5]; Table 17-3, mice): 2.29E+04; Total Flux Liver ([5]; Table 17-3, mice, liver): 1.39E+06; Total Flux Lung ([5]; Table 17-3, mice): 1.40E+04; Total Flux Spleen ([5]; Table 17-3, mice): 3.72E+05
CCCCCCCCCCCCCCN(CCCCCCCCCCCCCC)CCN(CCCCCCCCCCCCCC)CCN1CCN(CCN(CCCCCCCCCCCC)CCCCCC(=O)OCCCCC)CC1 [Compound 13, Pentyl 6-((2-(4-(2-((2-(ditetradecylamino)ethyl)(tetradecyl)amino)ethyl)piperazin-1-yl)ethyl)(dodecyl)amino)hexanoate] | 0.080 | 97.7 | 64.2 | 3.59E+09 | 3.80E+09 | 3.11E+08 | 6.30 | 301 | 7266 | 1.99E+06 | 6.10E+08 | 2.89E+06 | 3.63E+07 | – | – | – | – | – | – | – | IL-6 induction, rank within the named table (in words) (IL-6): highest expression; IP-10 induction, rank or comparison with IL-6 (in words) (IP-10): highest expression
CCCCCCCCCCCCCCN(CCCCCCCCCCCCCC)CCN1CCN(CCN(CCCCCCCCCCCC)CCN(CCCCCCCCCCCC)CCCCCCCCCCCC)CC1 [Compound 26, N^1-(2-(4-(2-(Ditetradecylamino)ethyl)piperazin-1-yl)ethyl)-N^1,N^2,N^2-tridodecylethane-1,2-diamine] | – | – | – | 1.65E+07 | 1.04E+07 | 2.75E+06 | – | 17 | 175 | – | 2.35E+06 | 3.49E+04 | 2.30E+05 | – | – | – | – | – | – | – | Size (nm) ([1]; Table 1, * formulated with lipid:DSPC:Chol:PEG-DMG 50:10:38.5:1.5): 74.2 nm; PDI [1, 8]: 0.112; EE (%) [2, 8]: 84.9%; pKa [4, 8]: 6.19
CCCCC/C=C\CCCCCN(CCO)CCN(CCCCCCCCCCCC)CCCCCCCCCCCC [Compound 20-23, (Z)-2-((2-(Didodecylamino)ethyl)(dodec-6-en-1-yl)amino)ethan-1-ol] | – | – | – | – | – | – | – | – | – | – | – | – | – | 0.080 | 88.1 | 95.3 | 1.91E+09 | 1.42E+09 | 1.13E+08 | 6.56 | IL-6 (IL-6; Table 20-4, formula (20-I)): 236.4; IP-10 (IP-10; Table 20-4, formula (20-I)): 457.8; Total Flux Femur ([5]; Table 20-3, mice): 5.10E+05; Total Flux Liver ([5]; Table 20-3, mice, liver): 3.06E+08; Total Flux Lung ([5]; Table 20-3, mice): 1.28E+06; Total Flux Spleen ([5]; Table 20-3, mice): 4.19E+06
CCCCCCCCCCCCN(CCO)CCN(CCCCCCCCCCCC)CCCCCC(=O)OCCCCCCC [Compound 20-7, Heptyl 6-(dodecyl(2-(dodecyl(2-hydroxyethyl)amino)ethyl)amino)hexanoate] | – | – | – | – | – | – | – | – | – | – | – | – | – | 0.170 | 73.6 | 92.4 | 1.22E+10 | 8.94E+09 | 2.65E+08 | 6.66 | total flux after 3 hours, rank within the named table (in words) ([3]; 3 hours): highest after 3 hours; IL-6 (IL-6; Table 20-4, formula (20-I)): 24.5; IP-10 (IP-10; Table 20-4, formula (20-I)): 696.3; Total Flux Liver ([5]; Table 20-3, mice, liver): 1.00E+09; Total Flux Lung ([5]; Table 20-3, mice): 1.38E+07; Total Flux Spleen ([5]; Table 20-3, mice): 4.58E+07; total flux in the liver, rank within the named table (in words) ([5]; mice, liver): highest
CCCCCCCCCCCCN(CCO)CCN(CCCCCCCCCCCC)CCCCCC(=O)OCCCCC [Compound 20-2, Pentyl 6-(dodecyl(2-(dodecyl(2-hydroxyethyl)amino)ethyl)amino)hexanoate] | – | – | – | – | – | – | – | – | – | – | – | – | – | 0.130 | 71.8 | 91.6 | 1.35E+09 | 2.18E+09 | 6.49E+07 | 6.60 | IL-6 (IL-6; Table 20-4, formula (20-I)): 118.5; IP-10 (IP-10; Table 20-4, formula (20-I)): 522.9; Total Flux Femur ([5]; Table 20-3, mice): 1.07E+06; Total Flux Liver ([5]; Table 20-3, mice, liver): 6.01E+08; Total Flux Lung ([5]; Table 20-3, mice): 4.52E+06; Total Flux Spleen ([5]; Table 20-3, mice): 3.12E+07
CCCCCCCCCCCCN(CCCCCCCCCCCC)CCN1CCN(CCN(CCCCCCCCC)CCN(CCCCCCCCC)CCCCCCCCC)CC1 [Compound 19, N^1-(2-(4-(2-(Didodecylamino)ethyl)piperazin-1-yl)ethyl)-N^1,N^2,N^2-trinonylethane-1,2-diamine] | 0.100 | 76.1 | 97.2 | 1.06E+10 | 6.52E+09 | 2.65E+09 | 6.29 | 70 | 2326 | 2.75E+06 | 1.89E+09 | 2.27E+06 | 8.28E+06 | – | – | – | – | – | – | – | –
CCCCCCCCCCCCCCN(CCO)CCN(CCCCCCCCCCCC)CCCCCCCCCCCC [Compound 20-24, 2-((2-(Didodecylamino)ethyl)(tetradecyl)amino)ethan-1-ol] | – | – | – | – | – | – | – | – | – | – | – | – | – | 0.038 | 90.6 | 96.9 | 7.47E+08 | 1.64E+08 | 9.72E+06 | 6.06 | IL-6 (IL-6; Table 20-4, formula (20-I)): 67.1; IP-10 (IP-10; Table 20-4, formula (20-I)): 1678.6; Total Flux Liver ([5]; Table 20-3, mice, liver): 4.05E+07; Total Flux Lung ([5]; Table 20-3, mice): 1.08E+05; Total Flux Spleen ([5]; Table 20-3, mice): 1.11E+06
CCCCCCCCCCCCCCN(CCCCCCCCCCCCCC)CCN(CCCCCCCCCCCCCC)CCN1CCN(CCN(CCCCCCCCCCCCCC)CCCCCCCCCCCCCC)CC1 [Compound 32, N^1-(2-(4-(2-(Ditetradecylamino)ethyl)piperazin-1-yl)ethyl)-N^1,N^2,N^2-tritetradecylethane-1,2-diamine] | 0.160 | 79.3 | 83.6 | 6.85E+08 | 5.88E+08 | 4.37E+07 | 6.28 | 174 | 727 | 1.02E+05 | 8.36E+07 | 6.75E+05 | 9.38E+05 | – | – | – | – | – | – | – | –
CCCCCCCC/C=C\CCCCCCCCN(CCCCCCCC/C=C\CCCCCCCC)CCN(CCCCCCCC/C=C\CCCCCCCC)CCN1CCN(CCN(CCCCCCCCCCCC)CCCCCCCCCCCC)CC1 [Compound 33, N^1-(2-(4-(2-(Didodecylamino)ethyl)piperazin-1-yl)ethyl)-N^1,N^2,N^2-tri((Z)-octadec-9-en-1-yl)ethane-1,2-diamine] | 0.138 | 79.7 | 98.1 | 1.64E+09 | 4.71E+09 | 1.54E+08 | 6.06 | 37 | 1577 | 1.18E+06 | 6.15E+08 | 2.84E+06 | 4.82E+06 | – | – | – | – | – | – | – | –
